Legend:
NCI-H460 cells = experiment: 48-hour cellular proliferation assay, sulforhodamine stain (human lung large cell carcinoma, MDR negative); type: cell-based; conditions: NCI-H460 cells
Experimental: (§1) Compounds of this invention were tested in a 48-hour cellular proliferation assay that uses human colon adenocarcinoma, MDR positive (HCT-15) cells, and human lung large cell carcinoma, MDR negative (NCI-H460) cells, in the 96-well microtitre format described in Skehan P., et al. New Colorimetric Cytotoxicity Assay for Anticancer Drug Screening. 1990, J. Natl. Cancer Inst. 82:1107-1112, hereby incorporated by reference. Briefly, the wells of a microtitre plate were charged sequentially with cultured cells and compounds of the invention (1.0×10^-4 to 1.0×10^-11 M in 10% DMSO prepared by dissolving compounds of the invention in DMSO and adding 11 μL of the DMSO solution to 100 μL of culture medium for a final DMSO concentration of 10%). Two of the following controls were also present in each microtitre plate: a solvent (DMSO) control without drug that yielded a 0% inhibition level and a trichloroacetic acid-treated well that yielded a 100% inhibition level. The cells were grown in culture (37° C., 5% CO2 atmosphere) for 48 hours then fixed by the addition of trichloroacetic acid. The wells were stained with sulforhodamine, washed with 1% acetic acid, and treated with 0.01 M tris buffer (100 μL) to solubilize the adherent dye. The absorbance of the dye solution was measured with a Molecular Devices SpectraMax340 plate reader. Percent inhibition and Inhibitory Concentrations (IC50) values were obtained by calculating the proportional response of the experimental values to the absorbance values of the controls.

HCT-15 cells = experiment: 48-hour cellular proliferation assay, sulforhodamine stain (human colon adenocarcinoma, MDR positive); type: cell-based
Experimental: as §1

[1] = Homo sapiens, values given in μM

SMILES | IC50 (NCI-H460 cells; [1]) [µM] | IC50 (HCT-15 cells; [1]) [µM] | IC50 (NCI-H460 cells; Homo sapiens, values in nM) [µM] | IC50 (HCT-15 cells; Homo sapiens, values in nM) [µM] | other results
COc1cc(C2CN=C(c3ccc4ncccc4c3)O2)cc(OC)c1OC (stereo not drawn) [Example 35, 2-(6-guinolinvl)-5-(3,4,5-trimethoxyphenyl)-Δ2,3-oxazoline] | 3.2 | 2.4 | – | – | –
COc1cc(C2CN=C(c3ccnc4ccccc34)O2)cc(OC)c1OC (stereo not drawn) [Example 37, 2-(4-quinolinyl)-5-(3,4,5-trimethoxyphenyl)-Δ2,3-oxazoline] | 37 | 44 | – | – | –
COc1cc(C2CN=C(c3nccc4ccccc34)O2)cc(OC)c1OC (stereo not drawn) [Example 38, 2-(1-isoquinolinyl)-5-(3,4,5-trimethoxyphenyl)-Δ2,3-oxazoline] | 78 | 63 | – | – | –
COc1ccc(C2=NCC(c3cc(OC)c(OC)c(OC)c3)O2)cc1N (stereo not drawn) [Example 39, 2-(3-amino-4-methoxyphenyl)-5-(3,4,5-trimethoxyphenyl)-Δ2,3-oxazoline] | – | – | 0.068 | 0.033 | –
COc1cc(C2CN=C(c3ccc(C)c(N)c3)O2)cc(OC)c1OC (stereo not drawn) [Example 40, 2-(3-amino-4-methyphenyl)-5-(3,4,5-trimethoxyphenyl)-Δ2,3-oxazoline] | – | – | 0.082 | 0.062 | –
COc1ccc(C2=NCC(c3cc(OC)c(OC)c(OC)c3)O2)cc1NC(=O)C(C)NC(=O)C(C)N (stereo not drawn) [Example 41] | – | – | – | – | IC50 (NCI-H460 cells; values in nM): 0.59 µM; IC50 (HCT-15 cells; values in nM): 0.52 µM
COc1ccc(C2=NCC(c3cc(OC)c(OC)c(OC)c3)O2)cc1NC(=O)[C@@H](N)CO (stereo partly drawn) [Example 44] | 3.8 | 6.6 | – | – | –
COc1cc(C2CN=C(c3ccn(C)c(=O)c3)O2)cc(OC)c1OC (stereo not drawn) [Example 46, 2-(1-methyl-1H-pyridin-2-on-4-yl)-5-(3,4,5-trimethoxyphenyl)-Δ2,3-oxazoline] | – | – | 0.47 | 0.44 | –
COc1cc(C2CN=C(c3ccc4c(ccn4C(=S)SC)c3)O2)cc(OC)c1OC (stereo not drawn) [Example 56, 2-(1-methlthiothiocarbonylindol-5-yl)-5-(3,4,5-trimethoxyphenyl)-Δ2,3-oxazoline] | 6 | 12 | – | – | –
COc1cc(C2CN=C(c3cc4ccn(C)c4cc3Cl)O2)cc(OC)c1OC (stereo not drawn) [Example 60, 2-(6-Chloro-1-methylindol-5-yl)-5-(3,4,5-trimethoxyphenyl)-Δ2,3-oxazoline] | – | – | 0.41 | 0.28 | –
COc1cc(C2CN=C(c3ccc4c(ccn4C(F)F)c3)O2)cc(OC)c1OC (stereo not drawn) [Example 61, 2-(1-difluoromethylindol-5-yl)-5-(3,4,5-trimethoxyphenyl)-Δ2,3-oxazoline] | – | – | 0.0018 | 0.0019 | –
COc1cc(C2CN=C(c3ccc4c(c3)c(Cl)cn4C)O2)cc(OC)c1OC (stereo not drawn) [Example 62, 2-(3-chloro-1-methylindol-5-yl)-5-(3,4,5-trimethoxyphenyl)-Δ2,3-oxazoline] | – | – | 0.037 | 0.023 | –
COc1cc(C2CN=C(c3cc(F)c4[nH]ccc4c3)O2)cc(OC)c1OC (stereo not drawn) [Example 63, 2-(7-fluoro-5-indolyl)-5-(3,4,5-trimethoxyphenyl)-Δ2,3-oxazoline] | – | – | 0.043 | 0.02 | –
COc1cc(C2CN=C(c3cc(F)c4c(ccn4C)c3)O2)cc(OC)c1OC (stereo not drawn) [Example 64, 2-(1-methyl-7-fluoro-5-indolyl)-5-(3,4,5-trimethoxyphenyl)-Δ2,3-oxazoline] | – | – | 0.0029 | 0.00396 | –
COc1cc(C2CN=C(c3cc(Cl)c4[nH]ccc4c3)O2)cc(OC)c1OC (stereo not drawn) [Example 65, 2-(7-chloro-5-indolyl)-5-(3,4,5-trimethoxyphenyl)-Δ2,3-oxazoline] | – | – | 0.051 | 0.037 | –
COc1cc(C2CN=C(c3cc(Cl)c4c(ccn4C)c3)O2)cc(OC)c1OC (stereo not drawn) [Example 66, 2-(1-methyl-7-chloro-5-indolyl)-5-(3,4,5-trimethoxyphenyl)-Δ2,3-oxazoline] | – | – | 0.1 | 0.046 | –
COc1cc(C2CN=C(c3ccc4[nH]cc(F)c4c3)O2)cc(OC)c1OC (stereo not drawn) [Example 67, 2-(3-fluoro-5-indolyl)-5-(3,4,5-trimethoxyphenyl)-Δ2,3-oxazoline] | – | – | 0.038 | 0.023 | –
COc1cc(C2CN=C(c3ccc4c(c3)c(F)cn4C)O2)cc(OC)c1OC (stereo not drawn) [Example 68] | – | – | 0.15 | 0.047 | –
COc1cc(C2CN=C(c3ccc4c(ccn4CO)c3)O2)cc(OC)c1OC (stereo not drawn) [Example 69, 2-(1-hydroxymethylindol-5-yl)-5-(3,4,5-trimethoxyphenyl)-Δ2,3-oxazoline] | – | – | 0.68 | 0.45 | –
COCn1ccc2cc(C3=NCC(c4cc(OC)c(OC)c(OC)c4)O3)ccc21 (stereo not drawn) [Example 70, 2-(1-methoxymethyl-5-indolyl)-5-(3,4,5-trimethoxyphenyl)-Δ2,3-oxazoline] | – | – | 0.21 | 0.17 | –
COc1cc(C2CN=C(c3ccc4c(c3)cc(C)n4C)O2)cc(OC)c1OC (stereo not drawn) [Example 71] | – | – | 0.017 | 0.005 | –
COc1cc(C2CN=C(c3cc(C)c4[nH]ccc4c3)O2)cc(OC)c1OC (stereo not drawn) [Example 72, 2-(7-methyl-5-indolyl)-5-(3,4,5-trimethoxyphenyl)-Δ2,3-oxazoline] | – | – | 0.036 | 0.011 | –
COc1cc(C2CN=C(c3cc(C)c4c(ccn4C)c3)O2)cc(OC)c1OC (stereo not drawn) [Example 73, 2-(1,7-dimethyl-5-indolyl)-5-(3,4,5-trimethoxyphenyl)-Δ2,3-oxazoline] | – | – | 0.041 | 0.034 | –
COc1cc(C2CN=C(c3cc(C)c4c(c3)cc(C)n4C)O2)cc(OC)c1OC (stereo not drawn) [Example 74, 2-(1,2,7-trimethylindol-5-yl)-5-(3,4,5-trimethoxyphenyl)-Δ2,3-oxazoline] | 1.2 | 1.3 | – | – | –
COc1cc(C2CN=C(c3ccc4c(c3)nc(C)n4C)O2)cc(OC)c1OC (stereo not drawn) [Example 75, 2-(1,2-dimethylbenzimidazol-5-yl)-5-(3,4,5-trimethoxyphenyl)-Δ2,3-oxazoline] | 3.8 | 1.9 | – | – | –
COc1cc(C2CN=C(c3ccc4c(c3)c(C(=O)C(F)(F)F)cn4C)O2)cc(OC)c1OC (stereo not drawn) [Example 77, 2-(1-methyl-3-trifluoroacetylindol-5-yl)-5-(3,4,5-trimethoxyphenyl)-Δ2,3-oxazoline] | 4.2 | 3.8 | – | – | –
COc1cc(C2CN=C(c3ccc4c(ccn4CC(F)(F)F)c3)O2)cc(OC)c1OC (stereo not drawn) [Example 78, 2-(1-(2,2,2-trifluoroethyl)indol-5-yl)-5-(3,4,5-trimethoxyphenyl)-Δ2,3-oxazoline] | 3.5 | 1.9 | – | – | –

— patent US6228868A, “Oxazoline antiproliferative agents” (Abbott Laboratories, priority 1999, dated 2001)
